Data set [1] can be described thus: ABTS-assay, anti-oxidative capacity (inhibition of radical formation). Particulars: for IC50: ABTS radical cation, absorption at 734 nm, mean value from at least 2 independent tests. The format is biochemical. How it is done: 6-Paradol is a known antioxidant. With the help of the ABTS-assay the anti-oxidative capacity of [6]-paradol and alpha-tocopherol was compared.
2,2′-azino bis-(3-ethylbenzothiazoline 6-sulfonic acid) (ABTS) was transformed by potassium persulfate into the blue-green radical cation ABTS•^+. Through the addition of [6]-paradol and alpha-tocopherol the radical cations were reduced and discoloration was observed, which was determined photometrically by Absorption at 734 nm. The inhibition of the radical formation of the test substance is calculated by the following formula:
[formula] Wherein the abbreviations have the following meanings: • Atest substance: Absorption of the wells with test substance including [6]-paradol and alpha-tocopherol • Acontrol: Absorption of the wells without test substance
From the inhibition of the radical formation [%] in a series of dilutions of tested samples the IC50 was calculated. This is the concentration at which the radical formation is inhibited by 50%.

Another data set concerns DMBA-treated hamsters. As to conditions: oral 30 mg/kg b.w. on alternate days for 14 weeks; cited from earlier work.
A short description of data set [2]: Stabilization of argan oil, absorbance at 232 nm (conjugated dienes). The format is physicochemical. As to conditions: compared to argan oil without additive or to alpha-tocopherol 0.5%. How it is done:
To evaluate the protecting effect of oils from oxidation, oil samples comprising argan oil without (A) and with different additives (B to D) were prepared as given in Table 8.
The oils were divided into 3 portions each. One portion was exposed to artificial UV light in a suntest device (Original Hanau-Xenon lamp) for 8 hours 550-600 W/m^2 (300 to 800 nm). The other two portions were stored for 1 month either at room temperature exposed to normal daylight (RTL) or at 50° C. in a heating cabinet (50° C.), respectively. After the treatments, the absorbance at 232 nm was determined as this correlates with the state of oxidation by detecting conjugated dienes as specific oxidized compounds.

Another data set deals with oxidized DNA bases. Particulars: in vitro; cited from earlier work.
Data set [3] in a line: Stabilization of avocado oil, absorbance at 232 nm (conjugated dienes). In kind it is physicochemical. Particulars: compared to avocado oil without additive or to alpha-tocopherol 0.5%. The procedure: To evaluate the odor protecting effect of [6]-paradol on oils, oil samples comprising avocado oil without (A) and with different additives (B to D) were prepared as given in Table 5.
The oil samples were divided respectively into 3 portions, wherein one part was exposed to artificial UV light in a suntest device (Original Hanau-Xenon lamp) for 8 hours 550-600 W/m^2 (300 to 800 nm). The other two portions were stored for 1 month either at room temperature exposed to normal daylight (RTL) or at 50° C. in a heating cabinet (50° C.), respectively. After the treatments, the absorbance at 232 nm was determined as this positive correlates with the state of oxidation by detecting conjugated dienes as specific oxidized compounds.

Data set [4] can be described thus: Color measurement (CIELAB L*a*b*, ΔE) of anti-aging cream containing a retinoid after suntest. In kind it is physicochemical. How it is done: Retinoids such as e.g. retinol are potent anti-aging cosmetic agents known to be unstable and prone to discoloration upon light exposure and longer storage at higher temperatures (e.g. >30° C.).
The phase A was heated to 80° C. For phase B, Carbopol Ultrez 21 was sprinkled at the surface of the water for swelling. Afterwards, glycerin was added and phase B was heated up to 80°. Then phase B was added to phase A under strong agitation with an Ultra Turrax. The formula was cooled down and phase C was added at around 40° C. Afterwards, the formula was neutralized with sodium hydroxide to get pH 5-5.5. When the formula was at room temperature, phase E was added under agitation. Final pH was checked to be 5-5.5.
The cream samples were exposed to artificial UV light in a suntest device (Original Hanau-Xenon lamp) for 8 hours 550-600 W/m^2 (300 to 800 nm). Afterwards, they were evaluated for discoloration by measurement of L*a*b* values and calculation of the color difference ΔE as described in example 8.

For `CCCCCCCC(=O)CCc1ccc(O)c(OC)c1` [[6]-paradol, 1-(4-hydroxy-3-methoxyphenyl)-decan-3-one], in data set [1], half-maximal inhibition (IC50) required 17.4 µM. For the same compound, the “radical scavenging activity better than alpha-tocopherol” value in data set [1] (comparison of IC50 values) stood at 1.5 fold. The status of antioxidants entry in the data set on DMBA-treated hamsters is recorded as “significantly improved the status of antioxidants”. The “protective effect on argan oil (in words)” value in data set [2] is recorded as “lower increase of absorbance at 232 nm”. In the data set on oxidized DNA bases, the “H2O2- and UV-induced formation of oxidized DNA bases” value was “attenuated”. The “protective effect on avocado oil (in words)” value in data set [3] is recorded as “lower increase of absorbance at 232 nm”.
For `Cc1c(C)c2c(c(C)c1O)CC[C@@](C)(CCC[C@H](C)CCC[C@H](C)CCCC(C)C)O2` [alpha-tocopherol, reference compound], in data set [1], inhibition was half-maximal at 26.8 µM (IC50). Moreover, the “color protection of retinol (in words)” value in data set [4] is listed as “unsuitable for protecting retinol from discoloration”.

A word on the IC50: it is the midpoint of a concentration-inhibition curve. High values mean lower potency, low ones higher potency.

The values are drawn from patent publication US12226501B2, “Composition with stabilized taste and odor” (Symrise AG, priority 2015, dated 2025).
